Patent US8044089B2, “3-3-di-substituted-oxindoles as inhibitors of translation initiation” (President and Fellows of Harvard College, priority 2004, dated 2011)
Read-outs that look alike come from different tables or passages of the source.

Experiments:
A549 lung cancer cells = test: SRB growth inhibition of A549 lung cancer cells; type: cell-based, human; settings: A549 lung cancer cells, unit inferred, read-out: SRB (IC50 for growth inhibition of A549 lung cancer cells)
Text: As a non-limiting example, compounds 1272 and 1273 (set forth in Table 1) were synthesized starting from 3-bromoaniline, which upon condensation with hydroxylamine and chloral hydrate followed by concentrated sulfuric acid yielded an inseparable regioisomeric mixture of 4- and 6-bromo isatins. The addition of the two phenyl groups to the three position of the oxindole allowed easy chromatographic separation of the 4- and 6-bromo-3,3-diphenyloxindoles 1272 and 1273. Table 1 sets forth biological data for diaryloxindole compounds including, but not limited to 1272 and 1273. For Tables 1-14, Ca^2+ refers to Ca^2+ release from intracellular stores where a “+” denotes release and a “+/−” denotes inconclusive; eIF2α-P refers to phosphorylation of eIF2α measured by Western blot; SRB refers to the inhibitory concentration to reduce cell growth by 50% (IC50) for growth inhibition of A549 lung cancer cells; and n.d. is not determined. […]

[1] = tested on: intracellular Ca^2+ stores; test: Ca2+ release from intracellular stores (FURA-2AM loaded cells); type: cell-based; set-up: key to Ca^2+ (Ca^2+ release from intracellular stores): a “+” denotes release; a “+/−” denotes inconclusive
Text: (§1) As a non-limiting example, compounds 1272 and 1273 (set forth in Table 1) were synthesized starting from 3-bromoaniline, which upon condensation with hydroxylamine and chloral hydrate followed by concentrated sulfuric acid yielded an inseparable regioisomeric mixture of 4- and 6-bromo isatins. The addition of the two phenyl groups to the three position of the oxindole allowed easy chromatographic separation of the 4- and 6-bromo-3,3-diphenyloxindoles 1272 and 1273. Table 1 sets forth biological data for diaryloxindole compounds including, but not limited to 1272 and 1273. For Tables 1-14, Ca^2+ refers to Ca^2+ release from intracellular stores where a “+” denotes release and a “+/−” denotes inconclusive; eIF2α-P refers to phosphorylation of eIF2α measured by Western blot; SRB refers to the inhibitory concentration to reduce cell growth by 50% (IC50) for growth inhibition of A549 lung cancer cells; and n.d. is not determined.
(§2) Without intending to be bound by theory, the mechanism of action of translation initiation inhibitors is set forth in FIG. 1, and includes the depletion (complete or partial depletion) of intracellular calcium (Ca^2+) stores and phosphorylation of eIF2α. Compounds synthesized using the approaches described herein were screened for their ability to partially deplete intracellular Ca^2+ stores using FURA-2AM loaded cells (Benzaquen et al. (1995) Nature Medicine, 1:534, incorporated herein by reference in its entirety for all purposes). A limited subset of compounds were further screened for their ability to deplete endoplasmic reticulum (ER) Ca^2+. The Ca^2+ content of the ER was monitored using ER-targeted, Ca^2+ sensitive, recombinant proteins. These recombinant proteins emitted light by fluorescent resonance energy transfer (FRET) as a function of the Ca^2+ content of the medium. Such assays are previously described (Miyawaki, A.; Mizuno, H.; Llopis, J.; Tsien, R. Y.; Jalink, K. Cameleons as cytosolic and intra-organellar calcium probes, Oxford University Press: Oxford, London, 2001; pp 3-16, incorporated herein by reference in its entirety for all purposes). Compounds that depleted Ca^2+ were further evaluated for their ability to phosphorylate eIF2α. eIF2α phosphorylation was measured by Western blot analysis using the phospho-specific anti-eIF2α antibody, as previously described (Aktas et al. (1998) Proc. Natl. Acad. Sci. USA, 95:8280, incorporated herein by reference in its entirety for all purposes).

eIF2α = eIF2α phosphorylation measured by Western blot; type: cell-based; settings: Western blot; unit or reference not given
Text: as §1, §2

Structure (SMILES)	IC50 (A549 lung cancer cells) [µM]	Ca^2+ (Ca^2+ release from intracellular stores) [1]	eIF2α-P (phosphorylation of eIF2α measured by Western blot) (eIF2α)	IC50 (A549 lung cancer cells; Homo sapiens) [µM]
O=C1NC(=O)C(Cc2ccc(O)c(C3(c4ccccc4)C(=O)Nc4ccccc43)c2)S1 (stereo not drawn) [Compound 1220]	16	+/−		
CC(C)(C)c1ccc(OS(=O)(=O)CC23CCC(CC2=O)C3(C)C)c(C2(c3ccccc3)C(=O)Nc3ccccc32)c1 (stereo not drawn) [Compound 1319]	2	+		
CC(C)(C)c1ccc(O)c(C2(c3cc(C(C)(C)C)ccc3O)C(=O)Nc3ccccc32)c1 [Compound 1195]	3	+		
COc1ccc(C2(c3ccc(OC)cc3O)C(=O)Nc3ccccc32)c(O)c1 [Compound 1163]	10	+		
Cc1cc(C2(c3ccccc3)C(=O)Nc3ccccc32)c(NS(=O)(=O)c2ccc(-c3ccccc3)cc2)cc1O (stereo not drawn) [Compound 1593]	4		2.22	
CC(C)(C)c1ccc(OC(=O)CCCC(=O)O)c(C2(c3ccccc3)C(=O)Nc3ccccc32)c1 (stereo not drawn) [Compound 1396]	7		1.72	
O=C(O)c1cccc2c1NC(=O)C2(c1ccccc1)c1ccccc1 [Compound 1353]	> 20		1.54	
CC(C)(C)c1ccc(O)c(C2(c3ccccc3)C(=O)Nc3ccc(NS(=O)(=O)c4cccc5ccccc45)cc32)c1 (stereo not drawn) [Compound 1238]	3	+/−		
CC(C)(C)c1ccc(O)c(C2(c3ccccc3)C(=O)Nc3ccc(F)cc32)c1 (stereo not drawn) [Compound 1312]	4	+		
C=CCOCN1C(=O)C(c2ccccc2)(c2cc(C(C)(C)C)ccc2O)c2ccccc21 (stereo not drawn) [Compound 1227]	3	+		
NCCCCOc1ccc(O)c(C2(c3ccccc3)C(=O)Nc3ccccc32)c1 (stereo not drawn) [Compound 1228]	5	+		
CC(C)(C)c1ccc(O)c(C2(c3ccccc3)CNc3ccccc32)c1 (stereo not drawn) [Compound 1182]	12	+		
Cc1cc(C2(c3ccccc3)C(=O)Nc3ccccc32)c(NC(=O)OCC2c3ccccc3-c3ccccc32)cc1O (stereo not drawn) [Compound 1395]	3		1.84	
O=C1Nc2ccccc2C1(c1cccc(Cl)c1)n1ccnc1 (stereo not drawn) [Compound 1314]	> 20	+		
CN1C(=O)C(c2ccccc2)(c2ccccc2)c2ccccc21 [Compound 1301]		+		
O=C1Nc2ccccc2C1(c1ccc(O)cc1)c1ccc(-c2ccccc2)cc1 (stereo not drawn) [Compound 1261]	10	+		
Cc1cc2c(c(C3(c4ccccc4)C(=O)Nc4ccccc43)c1)NCC2 (stereo not drawn) [Compound 1313]		+		> 20
O=C1Nc2ccccc2C1(c1ccc(O)cc1)c1ccc(Oc2ccccc2)cc1 (stereo not drawn) [Compound 1260]	12	+		
CN(C)CCCCOc1ccc(O)c(C2(c3ccccc3)C(=O)Nc3ccccc32)c1 (stereo not drawn) [Compound 1216]	> 20	+/−		
CC(C)(C)c1ccc(S(=O)(=O)Nc2ccc(C3(c4ccccc4)C(=O)Nc4ccccc43)c(O)c2)cc1 (stereo not drawn) [Compound 1624]	< 1	+		
[N-]=[N+]=NCCCCOc1ccc(O)c(C2(c3ccccc3)C(=O)Nc3ccccc32)c1 (stereo not drawn) [Compound 1219]	5	+		
[N-]=[N+]=NCCCCOc1cccc(C2(c3ccccc3)C(=O)Nc3ccccc32)c1O (stereo not drawn) [Compound 1200]	3	+		
O=C1Nc2ccccc2C1(c1ccccc1)c1cc(OCCCCBr)ccc1O (stereo not drawn) [Compound 1203]	8	+		

Structure (SMILES)	IC50 (A549 lung cancer cells) [µM]	Ca^2+ (Ca^2+ release from intracellular stores) [1]	eIF2α-P (phosphorylation of eIF2α measured by Western blot) (eIF2α)	IC50 (A549 lung cancer cells; Homo sapiens) [µM]
CC(C)(C)c1ccc(O)c(C2(c3cccs3)C(=O)Nc3ccccc32)c1 (stereo not drawn) [Compound 1222]	9	+		
O=C1Nc2ccc(OC(F)(F)F)cc2C1(c1ccccc1)c1ccccc1 [Compound 1263]	8	+		
CC(C)(C)c1ccc(OC(=O)CCCC(=O)NO)c(C2(c3ccccc3)C(=O)Nc3ccccc32)c1 (stereo not drawn) [Compound 1323]	3	+		
CC(C)(C)c1ccc(S(=O)(=O)Nc2ccc(O)c(C3(c4ccccc4)C(=O)Nc4ccccc43)c2)cc1 (stereo not drawn) [Compound 1638]	3	+		
C=CCN1C(=O)C(c2ccccc2)(c2ccccc2)c2ccccc21 [Compound 1303]	15	+/−		
CN(C)c1ccc(C2(c3ccc(O)cc3)C(=O)Nc3ccccc32)cc1 (stereo not drawn) [Compound 1262]	10	+/−		
CC(C)(C)c1ccc(O)c(C2(c3c(F)c(F)c(F)c(F)c3F)C(=O)Nc3ccccc32)c1 (stereo not drawn) [Compound 1328]	3	+		
CC(C)(C)c1ccc(O)c(C2(c3ccccc3)C(=O)Nc3c(Br)cccc32)c1 (stereo not drawn) [Compound 1196]	3	+		
CC(C)(C)c1ccc(S(=O)(=O)Nc2cc(O)ccc2C2(c3ccccc3)C(=O)Nc3ccccc32)cc1 (stereo not drawn) [Compound 1623]	< 1	+		
CCCc1ccc(C2(c3ccccc3)C(=O)Nc3ccccc32)cc1 (stereo not drawn) [Compound 1296]	11	+		
CC(C)(C)c1cccc(C2(c3ccc(O)cc3)C(=O)Nc3ccccc32)c1 (stereo not drawn) [Compound 1232]	4	+		
O=C1Nc2ccccc2C1(c1ccccc1)c1cc(O)ccc1O (stereo not drawn) [Compound 1201]		+		
Cc1cc(C2(c3ccccc3)C(=O)Nc3ccccc32)c(NS(C)(=O)=O)cc1O (stereo not drawn) [Compound 1427]	14	+		
O=C1Nc2c(I)cccc2C1(c1ccccc1)c1ccccc1 [Compound 1267]			1.88	
CC(C)(C)c1cccc(C2(n3ccnc3)C(=O)Nc3ccccc32)c1 (stereo not drawn) [Compound 1318]	2	+		
CC(C)(C)c1ccc(OC(=O)CCCCCCC(=O)O)c(C2(c3ccccc3)C(=O)Nc3ccccc32)c1 (stereo not drawn) [Compound 1321]	16	+		
Cc1cc(O)c(NS(=O)(=O)c2ccc(C(C)(C)C)cc2)cc1C1(c2ccccc2)C(=O)Nc2ccccc21 (stereo not drawn) [Compound 1648]		+		
CC(C)(C)c1ccc(O)c(C2(c3ccccc3)C(=O)Nc3cccc(Cl)c32)c1 (stereo not drawn) [Compound 1428]	3	+		
CC(C)(C)c1ccc(O)c(C2(c3ccccc3)C(=O)Nc3cc(Cl)ccc32)c1 (stereo not drawn) [Compound 1429]	3	+		
CC(C)(C)c1ccc(O)c(C2(c3ccccc3)C(=O)Nc3ccc(N=[N+]=[N-])cc32)c1 (stereo not drawn) [Compound 1348]	3	+		
CN(C)CCCCOc1cccc(C2(c3ccccc3)C(=O)Nc3ccccc32)c1O (stereo not drawn) [Compound 1199]	> 20	+		
COC(=O)C(N)Cc1ccc(O)c(C2(c3ccccc3)C(=O)Nc3ccccc32)c1 (stereo not drawn) [Compound 1171]		+		
C=CCCCOc1ccc(O)c(C2(c3ccccc3)C(=O)Nc3ccccc32)c1 (stereo not drawn) [Compound 1202]	6	+		
